Like-named read-outs stand apart in the source and are kept apart here.
Key:
[1] = system: supercoiled circular pBR322 plasmid DNA; test: Cleavage and photocleavage of plasmid DNA (gel electrophoresis); type: biochemical; conditions: compound 500 μM
Procedure: The cleavage of pBR322 plasmid DNA was evaluated both in the presence and absence of irradiation in order to further explore the interaction of the synthesized compounds with DNA and their possible biological efficacy. […] Following incubation of the samples at 37 °C, the impact of the compounds on pDNA was assessed using gel electrophoresis on 1% agarose gels stained with EB. Irradiation at 312 nm (UVB for 30 min), at 365 nm (UVA, for 120 min) or visible light (for 120 min) was also applied to further investigate the possibility of photocleavage activity of the compounds. […] The extent of pDNA damage from each compound was assessed by calculating the percentage of ss% and ds% using Equations (S4) and (S5).
S3.4 EB−displacement studies
The competition of the compounds with EB was investigated by fluorescence emission spectroscopy to examine whether the compounds can displace EB from its DNA−EB adduct. […] The solutions were excited at 540 nm and the emission was monitored from 550−700 nm with λmax = 592−594 nm and the effect of the addition of the compounds to the CT−DNA EB solution was recorded. […]
fluorescence emission bands at room temperature in solution or in the presence of CT DNA or EB under the same experimental conditions (λexcitation = 540 nm); therefore, the observed quenching of the EB−DNA solution may be attributed to the displacement of EB from its […]

[2] = system: X. campestris, E. coli, B. subtilis and S. aureus; test: Antibacterial activity, MIC summarised over the bacteria tested; type: cell-based; conditions: read-out: MIC values against the bacteria tested
Procedure: buffer (50 mM, pH 7.4). The absorbance was measured at 230 nm after 10 min. The antioxidant activity (reduction of H2O2) of the compounds was expressed as the percentage decrease of the initial H2O2 solution (H2O2%). L−ascorbic acid (or vitamin C) was used as a […]
S2 Antibacterial Activity studies
The antibacterial activity of the compounds was evaluated by determining their respective MIC values towards two Gram–(–) (Escherichia coli XL1 (E. coli) and Xanthomonas campestris ATCC 1395 (X. campestris)) and two Gram–(+) (Staphylococcus aureus ATCC 29213 (S. aureus) and Bacillus subtilis ATCC 6633 (B. subtilis)) bacterial species. Cultures of these microbial strains were grown on a rich selective agar medium and stored at 4°C. The selective media used were Nutrient Agar or Broth for B. subtilis and S. aureus, Yeast Mold Agar or Broth for X. campestris and Luria Agar or Broth for E. coli. Cells picked from the surface of the stored cultures were used to initiate liquid pre–cultures of the same selective medium at an initial turbidity of roughly 1 McFarland unit.
Pre–cultures were incubated for 24 h in a rotary shaking incubator and subsequently […]
progressive double dilution.

Row | Compound | total pDNA damage ([1]; dark, 150 min) [%] | MIC [2] [µM] | MIC ([2]; summary over the four strains) [µg/mL] | pDNA damage ([1]; UVB irradiation 312 nm, 30 min) [%]
1 | O=C(O)c1ccccc1Nc1ccc([N+](=O)[O-])cc1 [4′–NO2–fenH, 4′–nitrofenamic acid] | 57 | 48 to 97 | 12.5 to 25 | –
2 | O=C([O-])c1ccccc1Nc1ccc([N+](=O)[O-])cc1.O=C([O-])c1ccccc1Nc1ccc([N+](=O)[O-])cc1.[Co+2].c1cnc2c(c1)ccc1cccnc12 [Complex 3, [Co(4′–NO2–fen)2(phen)]] | – | – | – | 89

— PMC12195967, “Cobalt(II) Complexes of 4′–Nitro–Fenamic Acid: Characterization and Biological Evaluation” (Molecules, 2025)
